Results from patent publication US8859527B2 (priority 2009, dated 2014).
Like-named read-outs stand apart in the source and are kept apart here.

Assays:
[1] = water solubility by the method of Chinese Pharmacopoeia 2005; type: physicochemical; settings: DPT not included
Method: HP-β-CD and DPT are prepared into inclusion complexes under different conditions, and the DPT concentration in the inclusion complex is determined by ultraviolet spectrophotometry, and the composition molar ratio of DPT to HP-β-CD in the inclusion complex is further calculated; the water-solubility of the inclusion complex is determined according to the method specified in the examples of Chinese Pharmacopoeia 2005, so that solubility of DPT in this inclusion complex is further calculated.
With regard to the three factors, namely the concentration of HP-β-CD solution, the temperature for inclusion and the duration for inclusion, orthogonal experiments are carried out on three levels (the concentrations of the HP-β-CD solutions are 10%, 20% and 30%; the temperatures are 40° C., 50° C. and 60° C.; the duration is 1 hour, 2 hour and 3 hour), content and solubility of DPT in the inclusion complex are used as the evaluation parameters for the efficacy of inclusion, and the results are shown in Table 3. The solubility is determined by the method specified in the examples in Chinese Pharmacopoeia 2005, and the results are shown in Table 4.
The DPT content in the inclusion complex is determined by ultraviolet spectrophotometry. The solubility is determined by using the method specified in the examples in Chinese Pharmacopoeia 2005, and the results are shown in Table 6.

[2] = test system: A-549 (human lung adenocarcinoma cell line); experiment: in vitro growth inhibition of tumor cells, A-549; type: cell-based; settings: for Inhibition effects on in vitro growth: A549, 48 hours
Method: (§1) The tumor strains are A-549 (human lung adenocarcinoma cell line), BGC-823 (human gastric cancer cell line), C-6 (rat neurogliocytoma cell line), Hep G2 (human hepatic cancer cell line), HL-60 (human leukemia cell line), K-562 (human erythremia cell line) and Hela (human cervical cancer cell line). […] The drug was prepared as a stock solution of 10^−2 M by using physiological saline and diluted into the test solution in a gradient composed of five concentrations: C1 5×10^−5 M, C2 10^−5 M, C3 10^−6 M, C4 10^−7 M and C5 10^−8 M.
(§2) Experimental method: different tumor cells in exponential growth phase are inoculated in 96-well plates in a certain amount and the selected samples are added after the cells are cultured for 24 hours (suspension cells can be directly added after being inoculated), after the cells are incubated at 37° C. and 5% CO2 for another 48 hours, […] is added for further incubation for another 4 hours, and finally the samples are examined on a microplate reader after dissolving with DMSO.

[3] = test system: BGC-823 (human gastric cancer cell line); experiment: in vitro growth inhibition of tumor cells, BGC-823; type: cell-based; settings: for Inhibition effects on in vitro growth: 48 hours
Method: as §1, §2

[4] = test system: C-6 (rat neurogliocytoma cell line); experiment: in vitro growth inhibition of tumor cells, C-6; type: cell-based; settings: C6; for Inhibition effects on in vitro growth: 48 hours
Method: as §1, §2

[5] = test system: Hep G2 (human hepatic cancer cell line); experiment: in vitro growth inhibition of tumor cells, Hep G2; type: cell-based; settings: HepG2, 48 hours
Method: as §1, §2

[6] = test system: HL-60 (human leukemia cell line); experiment: in vitro growth inhibition of tumor cells, HL-60; type: cell-based; settings: for Inhibition effects on in vitro growth: 48 hours
Method: as §1, §2

[7] = test system: Hela (human cervical cancer cell line); experiment: in vitro growth inhibition of tumor cells, Hela; type: cell-based; settings: for Inhibition effects on in vitro growth: hela, 48 hours
Method: as §1, §2

[8] = test system: K-562 (human erythremia cell line); experiment: in vitro growth inhibition of tumor cells, K-562; type: cell-based; settings: for Inhibition effects on in vitro growth: K562, 48 hours
Method: as §1, §2

[9] = test system: transplanted tumor Heps; settings: Heps mice; for Body weight After administration / Tumor inhibition rate / Tumor weight: once every two days, four times
Method: (§3) Experimental groups: three dosage groups were set up for DPT, 10, 5 and 2.5 mg/kg; the blank control group: cyclophosphamide (CTX) group, Etoposide group 20 mg/kg.
(§4) Administration route: injection via tail vein, it is administered in a dosage of 0.4 ml/20 g body weight. Administration period: the drug is administrated 24 hours after the inoculation, once every two days for four times in total.
(§5) Experimental methods: 60 ICR mice with standard weight of from 18 to 22 g are inoculated with S-180 or Heps solid tumor according to the test method for transplanted tumors, hypodermic inoculation with 0.2 ml is carried out in the armpit in the anterior limb of every mouse. The body weight is determined 24 hours after the inoculation and they are randomly divided into six groups: the blank control group, the CTX group (20 mg/kg), the Etoposide group (20 mg/kg), the DPT group (10, 5 and 2.5 mg/Kg). The drug is administrated 24 hours after the inoculation once for every two days for 4 times, and tumor-bearing mice are killed on the next after drug withdrawal and their body weights are measured, and the separated tumor mess is weighed, and all of the data are subjected to statistical analyses (t-test).

[10] = test system: transplanted tumor S180; settings: S180 mice; for Body weight After administration / Tumor weight / Tumor-inhibition rate: once every two days, four times
Method: as §3, §4, §5

[11] = test system: P-388 leukemia; settings: P-388 leukemia cell line; cited from earlier work
[12] = test system: colon cancer HT-29; settings: cited from earlier work

## COc1cc([C@@H]2c3cc4c(cc3C[C@H]3COC(=O)[C@@H]32)OCO4)cc(OC)c1OC [DPT, Deoxypodophyllotoxin]
[1]
  solubility of DPT in water: about 0.5 mg/L
[2]; 5 × 10^−5M
  Inhibition effects on in vitro growth: 59.18%
[2]; 10^−5M
  Inhibition effects on in vitro growth: 56%
[2]; 10^−6M
  Inhibition effects on in vitro growth: 53.5%
[2]; 10^−7M
  Inhibition effects on in vitro growth: 52.24%
[2]; 10^−8M
  Inhibition effects on in vitro growth: 50.77%
[2]; A-549, 10^−5 to 10^−8 M
  inhibition effects compared with Etoposide: significant better than that of Etoposide
[3]; 5 × 10^−5M
  Inhibition effects on in vitro growth: 52.54%
[3]; 10^−5M
  Inhibition effects on in vitro growth: 35.31%
[3]; 10^−5 to 10^−8 M
  inhibition effects compared with Etoposide: significant better than that of Etoposide
[3]; 10^−6M
  Inhibition effects on in vitro growth: 33.2%
[3]; 10^−7M
  Inhibition effects on in vitro growth: 30.35%
[3]; 10^−8M
  Inhibition effects on in vitro growth: 24.49%
[4]; 5 × 10^−5M
  Inhibition effects on in vitro growth: 84.41%
[4]; 10^−5M
  Inhibition effects on in vitro growth: 58.54%
[4]; 10^−5 to 10^−8 M
  inhibition effects compared with Etoposide: significant better than that of Etoposide
[4]; 10^−6M
  Inhibition effects on in vitro growth: 55.01%
[4]; 10^−7M
  Inhibition effects on in vitro growth: 54.11%
[4]; 10^−8M
  Inhibition effects on in vitro growth: 52.34%
[5]; 5 × 10^−5M
  Inhibition effects on in vitro growth: 52.98%
[5]; 10^−5M
  Inhibition effects on in vitro growth: 31.85%
[5]; 10^−6M
  Inhibition effects on in vitro growth: 22.49%
[5]; 10^−7M
  Inhibition effects on in vitro growth: 24.36%
[5]; 10^−8M
  Inhibition effects on in vitro growth: 24.32%
[6]; 5 × 10^−5M
  Inhibition effects on in vitro growth: 57.37%
[6]; 10^−5M
  Inhibition effects on in vitro growth: 39.41%
[6]; 10^−5 to 10^−8 M
  inhibition effects compared with Etoposide: significant better than that of Etoposide
[6]; 10^−6M
  Inhibition effects on in vitro growth: 36.83%
[6]; 10^−7M
  Inhibition effects on in vitro growth: 29.27%
[6]; 10^−8M
  Inhibition effects on in vitro growth: 14.96%
[7]; Hela, 10^−5 to 10^−8 M
  inhibition effects compared with Etoposide: significant better than that of Etoposide
[7]; 5 × 10^−5M
  Inhibition effects on in vitro growth: 62.68%
[7]; 10^−5M
  Inhibition effects on in vitro growth: 49.89%
[7]; 10^−6M
  Inhibition effects on in vitro growth: 47.9%
[7]; 10^−7M
  Inhibition effects on in vitro growth: 46.57%
[7]; 10^−8M
  Inhibition effects on in vitro growth: 42.9%
[8]; 5 × 10^−5M
  Inhibition effects on in vitro growth: 67.05%
[8]; 10^−5M
  Inhibition effects on in vitro growth: 54.02%
[8]; 10^−6M
  Inhibition effects on in vitro growth: 50.95%
[8]; 10^−7M
  Inhibition effects on in vitro growth: 43.77%
[8]; 10^−8M
  Inhibition effects on in vitro growth: 35.82%
[8]; K-562, 10^−5 to 10^−8 M
  inhibition effects compared with Etoposide: significant better than that of Etoposide
[9]; 2.5 mg/kg iv group
  Body weight Before administration: 20.20 ± 1.48 g
[9]; 2.5 mg/kg iv
  Body weight After administration: 24.50 ± 2.22 g
  Tumor inhibition rate: 32.10%
  Tumor weight: 1.34 ± 0.29 g
[9]; 5 mg/kg iv group
  Body weight Before administration: 20.80 ± 1.40 g
[9]; 5 mg/kg iv
  Body weight After administration: 24.00 ± 3.46 g
  Tumor inhibition rate: 42.27%
  Tumor weight: 1.14 ± 0.15 g
[9]; 10 mg/kg iv group
  Body weight Before administration: 21.40 ± 0.84 g
[9]; 10 mg/kg iv
  Body weight After administration: 22.90 ± 2.73 g
  Tumor inhibition rate: 52.09%
  Tumor weight: 0.94 ± 0.32 g
[10]; 2.5 mg/kg iv group
  Body weight Before administration: 19.70 ± 1.16 g
[10]; 2.5 mg/kg iv
  Body weight After administration: 24.90 ± 2.47 g
  Tumor weight: 1.41 ± 0.30 g
  Tumor-inhibition rate: 23.44%
[10]; 5 mg/kg iv group
  Body weight Before administration: 19.00 ± 0.94 g
[10]; 5 mg/kg iv
  Body weight After administration: 22.50 ± 2.55 g
  Tumor weight: 1.08 ± 0.26 g
  Tumor-inhibition rate: 41.67%
[10]; 10 mg/kg iv group
  Body weight Before administration: 19.40 ± 1.71 g
[10]; 10 mg/kg iv
  Body weight After administration: 22.50 ± 2.07 g
  Tumor weight: 0.84 ± 0.27 g
  Tumor-inhibition rate: 54.53%
[11]
  in vitro inhibition effects: in vitro inhibition effects
[12]
  in vitro inhibition effects: in vitro inhibition effects
